Test results as given in US5854388A, “Angiotensin IV peptides and receptor” (Washington State University Research Foundation, priority 1994, dated 1998).
“Also recorded” adds a separate entry of the source.

Assays:
AT4 receptor [1] = biological target: T1, AT4 receptor (Bos taurus, UniProt F1N1Q8); assay: 125I-AIV binding and competition, bovine adrenal cortical membranes
T1 sequence (F1N1Q8 1-1022): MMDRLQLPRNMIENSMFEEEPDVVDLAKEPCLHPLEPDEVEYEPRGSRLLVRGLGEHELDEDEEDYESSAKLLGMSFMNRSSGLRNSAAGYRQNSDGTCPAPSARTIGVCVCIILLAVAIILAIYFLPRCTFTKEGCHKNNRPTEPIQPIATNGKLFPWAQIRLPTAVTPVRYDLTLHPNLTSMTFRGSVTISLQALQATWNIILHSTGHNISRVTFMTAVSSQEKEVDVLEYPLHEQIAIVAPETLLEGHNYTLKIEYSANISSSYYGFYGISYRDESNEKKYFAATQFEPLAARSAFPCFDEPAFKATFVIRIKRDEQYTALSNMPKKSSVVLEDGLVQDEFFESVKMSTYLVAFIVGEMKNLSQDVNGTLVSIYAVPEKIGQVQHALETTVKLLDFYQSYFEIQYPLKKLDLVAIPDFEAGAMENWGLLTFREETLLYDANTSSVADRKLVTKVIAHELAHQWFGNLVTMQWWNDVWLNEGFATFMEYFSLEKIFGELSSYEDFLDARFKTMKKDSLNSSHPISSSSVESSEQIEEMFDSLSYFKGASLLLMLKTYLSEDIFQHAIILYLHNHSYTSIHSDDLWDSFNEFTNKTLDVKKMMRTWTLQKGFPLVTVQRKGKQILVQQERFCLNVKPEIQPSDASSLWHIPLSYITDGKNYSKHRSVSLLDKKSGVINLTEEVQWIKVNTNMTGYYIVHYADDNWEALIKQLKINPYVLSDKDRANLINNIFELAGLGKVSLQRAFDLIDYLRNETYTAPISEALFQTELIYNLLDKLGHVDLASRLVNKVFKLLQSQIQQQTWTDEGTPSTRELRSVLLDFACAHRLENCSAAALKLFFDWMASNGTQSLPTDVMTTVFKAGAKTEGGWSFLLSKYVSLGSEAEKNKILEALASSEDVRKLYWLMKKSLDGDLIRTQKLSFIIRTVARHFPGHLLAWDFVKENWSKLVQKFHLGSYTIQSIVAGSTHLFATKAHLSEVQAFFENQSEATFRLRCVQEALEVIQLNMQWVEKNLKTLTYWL

[2] = biological target: T2, AT1 receptor (AII receptor) (Bos taurus, UniProt P25104); assay type: binding, bovine; settings: competition
T2 construct: from tissue; host or cells: bovine adrenal cortex membranes
T2 sequence (P25104 1-359): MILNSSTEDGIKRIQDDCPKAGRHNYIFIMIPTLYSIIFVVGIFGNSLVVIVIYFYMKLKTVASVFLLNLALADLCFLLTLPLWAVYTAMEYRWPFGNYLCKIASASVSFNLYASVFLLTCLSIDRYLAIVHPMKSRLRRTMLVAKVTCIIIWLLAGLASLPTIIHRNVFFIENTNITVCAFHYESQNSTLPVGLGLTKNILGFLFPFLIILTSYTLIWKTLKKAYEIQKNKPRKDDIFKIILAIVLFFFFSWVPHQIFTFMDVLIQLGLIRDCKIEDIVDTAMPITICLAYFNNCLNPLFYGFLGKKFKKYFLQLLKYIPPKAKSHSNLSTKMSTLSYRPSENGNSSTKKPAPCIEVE

AT4 receptor [3] = biological target: T1, AT4 receptor; assay: 125I-AIV binding and competition, solubilized bovine adrenal cortical receptor
AT4 receptor [4] = assay type: binding, rat; settings: brain, heart, kidney, aorta, lung, liver, cultured smooth muscle cells
Method: A second major approach to defining separate and distinct binding sites was to examine their relative tissue and species distribution (Table 8).
*25 μg of membrane protein was incubated with 500,000 cpm of label.
Specific binding was defined as total […]
At this time, the significance of this finding is uncertain.

rat kidney = assay: Renal cortical blood flow (laser doppler) and arterial pressure after infusion into the renal artery; assay type: in vivo
rats = assay: Passive avoidance conditioning after icv injection; assay type: in vivo, rat
bovine endothelial cells = assay: Endothelial cell growth (thymidine incorporation) and EDRF production; assay type: cell-based
Method: Cells were grown at 37° C. in 35 mm culture plates […] under 5% CO2 /95% air in Dulbecco's Modified Eagle's Medium (DMEM) supplemented with 5 μg/ml insulin and 10% (v/v) newborn bovine serum (NBBS). […] Negative controls were also included using ethidium bromide (1 mM). The cells were harvested at various times, and cellular lysates were prepared for scintillation counting by lysing and washing the cells on glass fiber filters.
Bovine aortic endothelial cells were grown at 37° C. in 35 mm culture plates under 5% CO2 in air in Dulbecco's Modified Eagle's Medium (DMEM) supplemented with 5 μg/ml insulin and 10% (v/v) newborn bovine serum (NBBS). The medium was aspirated 10-12 hours after seeding and replaced with serum-free medium. The medium was again aspirated 10-12 hours later and replaced with either test or control medium. Control medium was DMEM with 5 µg/ml insulin and 2%, 5%, or 10% (v/v) NBBS as indicated. […] The medium was changed every 48 h (i.e., with supportive DMEM medium for the remainder of the experiment).
As an adjunct to the determination of cell numbers, thymidine incorporation was measured. […] This material was then filtered under vacuum through 2.4 cm glass fiber filters (GF/A, Whatman), and the filters were washed twice with 10 ml of absolute ethanol and assayed for radioactivity by scintillation counting.

cardiocytes = assay: Hypertrophic action of AII on cardiocytes; assay type: cell-based
[5] = arterial and venous blood in man; cited from earlier work
AT4 receptor [6] = biological target: T1, AT4 receptor; assay: 125I-AIV binding, aortic endothelial cell (BAEC) membranes; design: species or system bovine; settings: 0.6 nM 125I-AIV
AT1 receptors = assay: GTPγS effect on 125I-AII binding, rat vascular smooth muscle cell (RVSMC) membranes; settings: 0.5 nM 125I-AII

Row | Structure (SMILES) | Bmax (AT4 receptor [1]) | Ki [2] [nM] | off-rate t1/2 (AT4 receptor [3]) [h] | binding in rat tissues (in words) (AT4 receptor [4]) | effect on renal blood flow (in words) (rat kidney; infusion into renal artery) | effect of preinfusion on blood flow response to another ligand (rat kidney; rat, in vivo) | agonist / antagonist activity (in words) (rat kidney; renal blood flow response compared to AIV) | passive avoidance latency / cognitive effect (in words) (rats) | EDRF production (bovine endothelial cells) | endothelial cell proliferation (thymidine incorporation) (bovine endothelial cells) | effect on hypertrophic action of AII (cardiocytes) | half-lives [5] [min] | effect on 125I-AIV binding (AT4 receptor [6]) | effect on 125I-AII binding (AT1 receptors)
1 | CC[C@H](C)[C@H](NC(=O)[C@H](Cc1ccc(O)cc1)NC(=O)[C@@H](N)C(C)C)C(=O)N[C@@H](Cc1cnc[nH]1)C(=O)N1CCC[C@H]1C(=O)N[C@@H](Cc1ccccc1)C(=O)O [AIV, Val1 Tyr2 Ile3 His4 Pro5 Phe6] | 3.82±1.12 | > 1000 | 4.873 | not been possible to demonstrate binding | profound and long-lasting increase in blood flow; also recorded: equally dramatic increase in flow; also recorded: dramatically increase renal blood flow and urine flow in a dose-dependent fashion | completely blocked the constrictive action of AII | full agnoistic activity | significantly elevated latency times | stimulating production of endothelial cell relaxing factor (EDRF) | enhancing cellular proliferation | antagonizes the hypertrophic action of AII | 1.9 | – | –
2 | Nc1nc2c(ncn2[C@@H]2O[C@H](COP(=O)(O)OP(=O)(O)OP(O)(O)=S)[C@@H](O)[C@H]2O)c(=O)[nH]1 [GTPγS] | – | – | – | – | – | – | – | – | – | – | – | – | no effect; also recorded: did not inhibit (or alter) binding | inhibited
